Test results as given in patent US20050175550A1, “Compositions for oral use” (priority 2000, published 2005).

Tests used:
Format in all cases: cell-based
[1] = system: Escherichia coli ATCC25922; test: MIC by agar plate dilution method on standard strains (Example 3)
Description: (§1) Drug solutions at a concentration 10 times as high as the maximum applicable concentration were prepared as original solutions of test drugs given in Table 2 (as to solvents used for this purpose, reference should be made also to Table 2). Serial two-fold dilution series of the original solutions were prepared at desired stages, and 1 ml each of the diluted drug solutions was added to 9 ml of media given in Table 3 to prepare drug plates. […] • 1) Bacterial solutions stocked at −80° C. were inoculated on agar media (as to media used, reference should be made to Table 3), and then incubated at 37° C. overnight. When desired, subculturing was conducted once more on the same agar media (by overnight incubation at 37° C.). • 2) Colonies growing on the agar media were sampled by a platinum loop, suspended in liquid media (reference should be made to Table 3) and statically incubated at 37° C. for 18 hours (preculturing). • 3) Preculturing was continued up to McFarland 0.5 (McFarland 0.5=about 10^8 CFU/ml), and then the culture broths were diluted with Muellar Hinton Broth to make 10^6 CFU/ml. 5 μl each of the diluted solutions were inoculated on the above-mentioned drug plates by an inoculator Microplanter. […] Thus, bacterial solutions at about 10^8 CFU/ml can be easily prepared by use of McFarland 0.5. Bacterial solutions at such a turbidity are commercially available, but can be easily prepared.

[2] = system: Klebsiella pneumoniae ATCC700603; test: as above
Description: as §1

[3] = system: Haemophilus influenzae ATCC49766; test: as above
Description: as §1

[4] = system: Streptococcus pneumoniae ATCC6301; test: as above
Description: as §1

[5] = system: Haemophilus influenzae ATCC33533; test: as above
Description: as §1

[6] = system: Moraxella (Branhamella) catarrhalis ATCC25240; test: as above
Description: as §1

[7] = system: Serratia marcescens ATCC13880; test: as above
Description: as §1

[8] = system: Micrococcus luteus ATCC9341; test: as above
Description: as §1

[9] = system: Streptococcus agalactiae ATCC13813; test: as above
Description: as §1

[10] = system: Streptococcus pyogenes ATCC12385; test: as above
Description: as §1

[11] = system: Staphylococcus aureus ATCC6538P; test: as above
Description: as §1

[12] = system: Moraxella (Branhamella) catarrhalis ATCC43617; test: as above
Description: as §1

[13] = system: Streptococcus pneumoniae ATCC6303; test: as above
Description: as §1

[14] = system: Streptococcus pyogenes ATCC12344; test: as above
Description: as §1

[15] = system: Streptococcus pneumoniae ATCC6306; test: as above
Description: as §1

[16] = system: Moraxella (Branhamella) catarrhalis ATCC25238; test: as above
Description: as §1

[17] = system: Streptococcus pyogenes ATCC12353; test: as above
Description: as §1

[18] = system: Pseudomonas aeruginosa ATCC27853; test: as above
Description: as §1

[19] = system: Streptococcus pneumoniae ATCC49619; test: as above
Description: as §1

[20] = system: Staphylococcus aureus ATCC29247; test: as above
Description: as §1

[21] = system: Haemophilus influenzae ATCC33391; test: as above
Description: as §1

[22] = system: Enterococcus faecalis ATCC29247; test: as above
Description: as §1

[23] = system: Streptococcus pneumoniae ATCC6302; test: as above
Description: as §1

[24] = system: Staphylococcus epidermidis ATCC29886; test: as above
Description: Minimum growth-inhibiting concentrations of trifluoromethionine and other antibacterial drugs on standard strains were determined by an agar plate dilution method according to the standard method of Japanese Society of Chemotherapy.
Drug solutions at a concentration 10 times as high as the maximum applicable concentration were prepared as original solutions of test drugs given in Table 2 (as to solvents used for this purpose, reference should be made also to Table 2). Serial two-fold dilution series of the original solutions were prepared at desired stages, and 1 ml each of the diluted drug solutions was added to 9 ml of media given in Table 3 to prepare drug plates. Concentration range of the individual drugs used are as follows: trifluoromethionine: 400-0.025 μg/ml (15 stages), tetracycline: 100-0.025 μg/ml (13 stages), and clarithromycin: 100-0.025 μg/ml (13 stages).
• 1) Bacterial solutions stocked at −80° C. were inoculated on agar media (as to media used, reference should be made to Table 3), and then incubated at 37° C. overnight. When desired, subculturing was conducted once more on the same agar media (by overnight incubation at 37° C.). • 2) Colonies growing on the agar media were sampled by a platinum loop, suspended in liquid media (reference should be made to Table 3) and statically incubated at 37° C. for 18 hours (preculturing). • 3) Preculturing was continued up to McFarland 0.5 (McFarland 0.5=about 10^8 CFU/ml), and then the culture broths were diluted with Muellar Hinton Broth to make 10^6 CFU/ml. 5 μl each of the diluted solutions were inoculated on the above-mentioned drug plates by an inoculator Microplanter.
Thus, bacterial solutions at about 10^8 CFU/ml can be easily prepared by use of McFarland 0.5. Bacterial solutions at such a turbidity are commercially available, but can be easily prepared. McFarland 0.5 can be obtained by adding 0.5 ml of an aqueous 0.048 mol/l barium chloride solution to 99.5 ml of 1% v/v (0.18 mol/l) sulfuric acid. • 4) The individual bacteria were incubated at 37° C. for 18-20 hours and then the growth was determined in the same manner as in Example 2 to obtain minimum growth-inhibiting concentrations.

[25] = system: Actinobacillus actinomycetemcomitans Y4; test: Antibacterial test, propagation by turbidity in broth (Example 1); settings: medium containing 0.1 mM or 1.0 mM trifluoromethionine, FIG. 5

N[C@@H](CCSC(F)(F)F)C(=O)O [TFM, Trifluoromethionine]
>400 µg/mL: MIC [1] | MIC [2] | MIC [4] | MIC [7] | MIC [8] | MIC [9] | MIC [10] | MIC [11] | MIC [13] | MIC [14] | MIC [15] | MIC [17] | MIC [18] | MIC [19] | MIC [20] | MIC [22] | MIC [23] | MIC [24]
remarkable antibacterial effects: antibacterial effect (propagation of bacteria, absorbance at 550 nm) [25]
100 µg/mL: MIC [5] | MIC [12] | MIC [16]
25 µg/mL: MIC [3] | MIC [6]
50 µg/mL: MIC [21]
